Patent publication US20150344466A1 (SUMITOMO CHEMICAL COMPANY, LIMITED, priority 2013, published 2015)

How the values were obtained:
Format in all cases: in vivo
Musca domestica [1] = assay: Knockdown spray test on adult Musca domestica (Test Example 3); settings: topical, 0.25 h, active ingredient 2.0% w/v, 0.5 ml sprayed, within 15 minutes, read-out: knockdown rate of the test insects within 15 minutes
In short: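 Ten adult house flies (5 male, 5 female) in a gauze-covered cup sprayed with 0.5 ml test solution from 30 cm at 0.9 kg/cm^2 inside a chamber, then removed. Knocked-down flies counted at 2, 5 and 15 min and expressed as % of insects tested.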

Culex pipiens pallens [2] = assay: Larvicidal test on Culex pipiens pallens, one day (Test Example 6); settings: 24 h; last-instar larvae of Culex pipiens pallens; 3.5 ppm in water; one day later; read-out: death rate
Protocol: Each of the formulations of Compounds of Present Invention (39), (63), (71), (72), (92), (93), (95), (106), (150), (171), (170), (181), (182), (183), (187), (188), (189), (190), (191), (192), (200), (201), (201), (234), (246), (290) and (299) obtained in Formulation Example 15 was diluted with water, so as to have a concentration of the active ingredient of 500 ppm, to prepare a test drug solution.
(§1) 20 last-instar larvae of Culex pipiens pallens were released into a liquid to which 0.7 ml of the above test drug solution was added to 100 ml of ion-exchanged water (a concentration of the active ingredient of 3.5 ppm). One day later, the life and death of the Culex pipiens pallens was examined, and the death rate was calculated. The death rate was calculated by the following equation.
(§2) Death rate (%)=(Number of dead insects/Number of tested insects)×100

Culex pipiens pallens [3] = assay: Knockdown spray test on adult Culex pipiens pallens (Test Example 4); settings: topical, 0.25 h, active ingredient 0.1% w/v, 0.5 ml sprayed, within 15 minutes, read-out: knockdown rate of the test insects within 15 minutes
In short: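 Knockdown counts were taken 2, 5 and 15 min after spraying and expressed as percent of the 10 adults tested. For the spray, 0.5 ml of solution was applied by spray gun (0.4 kg/cm^2) from 30 cm above a gauze-covered cup in a test chamber; the cup was taken out right after spraying.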

Culex pipiens pallens [4] = assay: Larvicidal test on Culex pipiens pallens, eight days (Test Example 7); settings: 192 h; last-instar larvae of Culex pipiens pallens; 3.5 ppm in water; eight days later; read-out: death rate
Protocol: as §1, with “Eight days” for “One day”
as §2

Blattella germanica [5] = assay: Knockdown spray test on Blattella germanica, 2.0% w/v oil formulation (Test Example 1); settings: topical, 0.25 h, active ingredient 2.0% w/v, 1.5 ml sprayed, within 15 minutes, read-out: knockdown rate of the test insects within 15 minutes
In short: (§3)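 Ten German cockroaches (5 males, 5 females) in a mesh-bottomed, butter-walled container were sprayed with 1.5 ml test solution from 60 cm at 0.42 kg/cm^2 inside a chamber.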

Plutella xylostella = assay: Foliar spray test on Plutella xylostella on cabbage (Test Example 10); settings: 120 h, third instar larvae of Plutella xylostella on cabbage, 500 ppm spray 20 ml/cup, after five days, read-out: controlling value
In short: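 Cabbage at the third–fourth true-leaf stage sprayed with test solution at 20 ml/cup, dried, then infested with 10 third-instar larvae. Insects counted after five days; controlling value (%) calculated from treated and non-treated counts before treatment and at observation.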

Spodoptera litura = assay: Foliar spray test on Spodoptera litura on cabbage (Test Example 11); settings: 96 h, fourth instar larvae of Spodoptera litura on cabbage, 500 ppm spray 20 ml/cup, after 4 days, read-out: controlling value
Protocol: On the other hand, cabbage was planted in a polyethylene cup, and grown until the third-fourth true leaf was spread. The test spray solution was sprayed to the cabbage at a ratio of 20 ml/cup. After the drug solution sprayed orn the cabbage was dried, 10 fourth instar larvae of Spodoptera litura were allowed to parasitize the cabbage. After 4 days, the number of surviving Spodoptera litura on the cabbage leaves was examined, and the controlling value was calculated according to the following equation. Controlling value (%)={1−(Cb×Tai)/([…])}×100 In the equation, the symbols represent as follows. Cb: the number of insects in a non-treated section before treatment Cai: the number of insects in a non-treated section on observation Tb: the number of insects in a treated section before treatment Tai: the number of insects in a treated section on observation

Musca domestica [6] = assay: Filter paper/sucrose bait death rate test on Musca domestica (Test Example 5); settings: female imagoes of Musca domestica, 0.7 ml on filter paper, after 24 hours
In short: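 Ten female imagoes were confined in a sealed cup over a filter paper treated with 0.7 ml of test solution and 30 mg sucrose bait. Mortality was scored at 24 h and expressed as percent of tested insects killed.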

Blattella germanica [7] = assay: Knockdown spray test on Blattella germanica, 0.1% w/v oil formulation (Test Example 2); settings: topical, 0.25 h, active ingredient 0.1% w/v, 1.5 ml sprayed, within 15 minutes, read-out: knockdown rate of the test insects within 15 minutes
In short: as §3

## O=C(NCC1CCOC1)c1cc(COCc2ccc(C(F)(F)F)cc2)on1 (stereo not shown) [(63), N-(tetrahydrofuran-3-ylmethyl)-5-(4-trifluoromethylbenzyloxymethyl)isoxazole-3-carboxamide]
Musca domestica [1]
  pest or weed control at 2 % strength: ≥ 80%
Culex pipiens pallens [2]
  pest or weed control at 3.5 ppm: ≥ 90%
Culex pipiens pallens [3]
  pest or weed control at 0.1 % strength: ≥ 80%
Culex pipiens pallens [4]
  pest or weed control at 3.5 ppm: ≥ 90%
Blattella germanica [5]
  pest or weed control at 2 % strength: ≥ 80%

## O=C(NCC1CCOCC1)c1cc(COCc2ccc(Cl)cc2)on1 [(71), N-(tetrahydropyran-4-ylmethyl)-5-(4-chlorobenzyloxymethyl)isoxazole-3-carboxamide]
Plutella xylostella
  pest or weed control at 500 ppm: ≥ 90%
Culex pipiens pallens [2]
  pest or weed control at 3.5 ppm: ≥ 90%
Culex pipiens pallens [3]
  pest or weed control at 0.1 % strength: ≥ 80%

## O=C(NCC1CCOC1)c1cc(COCc2ccc(Cl)c(Cl)c2)on1 (stereo not shown) [(72), N-(tetrahydrofuran-3-ylmethyl)-5-(3,4-dichlorobenzyloxymethyl)isoxazole-3-carboxamide]
Plutella xylostella
  pest or weed control at 500 ppm: ≥ 90%
Culex pipiens pallens [2]
  pest or weed control at 3.5 ppm: ≥ 90%
Culex pipiens pallens [3]
  pest or weed control at 0.1 % strength: ≥ 80%
Spodoptera litura
  pest or weed control at 500 ppm: ≥ 80%
Musca domestica [6]
  pest or weed control at 500 ppm: ≥ 90%
Blattella germanica [7]
  pest or weed control at 0.1 % strength: ≥ 80%

## O=C(NCC1CCOCC1)c1cc(COCc2ccc(Br)cc2)on1 [(92), N-(tetrahydropyran-4-ylmethyl)-5-(4-bromobenzyloxymethyl)isoxazole-3-carboxamide]
Plutella xylostella
  pest or weed control at 500 ppm: ≥ 90%
Culex pipiens pallens [2]
  pest or weed control at 3.5 ppm: ≥ 90%
Culex pipiens pallens [3]
  pest or weed control at 0.1 % strength: ≥ 80%
Culex pipiens pallens [4]
  pest or weed control at 3.5 ppm: ≥ 90%
Blattella germanica [7]
  pest or weed control at 0.1 % strength: ≥ 80%

## O=C(NCC1CCOC1)c1cc(COCc2ccc(OC(F)(F)F)cc2)on1 (stereo not shown) [(93), N-(tetrahydrofuran-3-ylmethyl)-5-(4-trifluoromethoxybenzyloxymethyl)isoxazole-3-carboxamide]
Plutella xylostella
  pest or weed control at 500 ppm: ≥ 90%
Culex pipiens pallens [2]
  pest or weed control at 3.5 ppm: ≥ 90%
Culex pipiens pallens [3]
  pest or weed control at 0.1 % strength: ≥ 80%
Culex pipiens pallens [4]
  pest or weed control at 3.5 ppm: ≥ 90%
Blattella germanica [7]
  pest or weed control at 0.1 % strength: ≥ 80%

## O=C(NCC1CCOC1)c1cc(COCc2ccc(SC(F)(F)F)cc2)on1 (stereo not shown) [(95), N-(tetrahydrofuran-3-ylmethyl)-5-(4-trifluoromethylthiobenzyloxymethyl)isoxazole-3-carboxamide]
Culex pipiens pallens [2]
  pest or weed control at 3.5 ppm: ≥ 90%
Culex pipiens pallens [3]
  pest or weed control at 0.1 % strength: ≥ 80%
Culex pipiens pallens [4]
  pest or weed control at 3.5 ppm: ≥ 90%

## O=C(NCC1CCOCC1)c1cc(COc2ccc(Cl)cc2)on1 [(181), N-(tetrahydropyran-4-ylmethyl)-5-[(4-chlorophenoxy)methyl]isoxazole-3-carboxamide]
Culex pipiens pallens [2]
  pest or weed control at 3.5 ppm: ≥ 90%
Culex pipiens pallens [3]
  pest or weed control at 0.1 % strength: ≥ 80%
Culex pipiens pallens [4]
  pest or weed control at 3.5 ppm: ≥ 90%

## O=C(NCC1CCOC1)c1cc(COc2ccc(Cl)c(Cl)c2)on1 (stereo not shown) [(182)]
Culex pipiens pallens [2]
  pest or weed control at 3.5 ppm: ≥ 90%
Culex pipiens pallens [3]
  pest or weed control at 0.1 % strength: ≥ 80%
Culex pipiens pallens [4]
  pest or weed control at 3.5 ppm: ≥ 90%

## O=C(NCC1CCOCC1)c1cc(COc2ccc(Br)cc2)on1 [(187), N-(tetrahydropyran-4-ylmethyl)-5-(4-bromophenoxymethyl)isoxazole-3-carboxamide]
Culex pipiens pallens [2]
  pest or weed control at 3.5 ppm: ≥ 90%
Culex pipiens pallens [3]
  pest or weed control at 0.1 % strength: ≥ 80%
Culex pipiens pallens [4]
  pest or weed control at 3.5 ppm: ≥ 90%

## O=C(NCC1CCOC1)c1cc(COc2ccc(C(F)(F)F)cc2)on1 (stereo not shown) [(188), N-(tetrahydrofuran-3-ylmethyl)-5-(4-trifluorophenoxymethyl) isoxazole-3-carboxamide]
Plutella xylostella
  pest or weed control at 500 ppm: ≥ 90%
Culex pipiens pallens [2]
  pest or weed control at 3.5 ppm: ≥ 90%
Culex pipiens pallens [3]
  pest or weed control at 0.1 % strength: ≥ 80%
Culex pipiens pallens [4]
  pest or weed control at 3.5 ppm: ≥ 90%

## O=C(NCC1CCOCC1)c1cc(COc2ccc(C(F)(F)F)cc2)on1 [(189), N-(tetrahydropyran-4-ylmethyl)-5-(4-trifluoromethylphenoxymethyl)isoxazole-3-carboxamide]
Culex pipiens pallens [2]
  pest or weed control at 3.5 ppm: ≥ 90%
Culex pipiens pallens [3]
  pest or weed control at 0.1 % strength: ≥ 80%
Culex pipiens pallens [4]
  pest or weed control at 3.5 ppm: ≥ 90%

## O=C(NCC1CCOCC1)c1cc(COc2ccc(OC(F)(F)F)cc2)on1 [(191), N-(tetrahydropyran-4-ylmethyl)-5-(4-trifluoromethoxyphenoxymethyl)isoxazole-3-carboxamide]
Plutella xylostella
  pest or weed control at 500 ppm: ≥ 90%
Culex pipiens pallens [2]
  pest or weed control at 3.5 ppm: ≥ 90%
Culex pipiens pallens [3]
  pest or weed control at 0.1 % strength: ≥ 80%
Spodoptera litura
  pest or weed control at 500 ppm: ≥ 80%
Culex pipiens pallens [4]
  pest or weed control at 3.5 ppm: ≥ 90%

## O=C(NCC1CCOC1)c1cc(COc2ccc(SC(F)(F)F)cc2)on1 (stereo not shown) [(192), N-(tetrahydrofuran-3-ylmethyl)-5-(4-trifluoromethylthiophenoxymethyl)isoxazole-3-carboxamide]
Culex pipiens pallens [2]
  pest or weed control at 3.5 ppm: ≥ 90%
Culex pipiens pallens [3]
  pest or weed control at 0.1 % strength: ≥ 80%
Culex pipiens pallens [4]
  pest or weed control at 3.5 ppm: ≥ 90%

## O=C(NCC1CCOC1)c1cc(COc2cccc(OC(F)(F)F)c2)on1 (stereo not shown) [(200), N-(tetrahydrofuran-3-ylmethyl)-5-(3-trifluoromethoxyphenoxymethyl)isoxazole-3-carboxamide]
Culex pipiens pallens [2]
  pest or weed control at 3.5 ppm: ≥ 90%
Culex pipiens pallens [3]
  pest or weed control at 0.1 % strength: ≥ 80%
Spodoptera litura
  pest or weed control at 500 ppm: ≥ 80%
Musca domestica [6]
  pest or weed control at 500 ppm: ≥ 90%
Culex pipiens pallens [4]
  pest or weed control at 3.5 ppm: ≥ 90%
Blattella germanica [7]
  pest or weed control at 0.1 % strength: ≥ 80%

## O=C(NCC1CCOCC1)c1cc(COc2cccc(OC(F)(F)F)c2)on1 [(201), N-(tetrahydropyran-4-ylmethyl)-5-(3-trifluoromethoxyphenoxymethyl)isoxazole-3-carboxamide]
Plutella xylostella
  pest or weed control at 500 ppm: ≥ 90%
Culex pipiens pallens [2]
  pest or weed control at 3.5 ppm: ≥ 90%
Culex pipiens pallens [3]
  pest or weed control at 0.1 % strength: ≥ 80%
Spodoptera litura
  pest or weed control at 500 ppm: ≥ 80%
Culex pipiens pallens [4]
  pest or weed control at 3.5 ppm: ≥ 90%

## O=C(NCC1CCOC1)c1cc(CCCc2ccc(Cl)c(Cl)c2)on1 (stereo not shown) [(246), N-(tetrahydrofuran-3-ylmethyl)-5-[3-(3,4-dichlorophenyl)propyl]isoxazole-3-carboxamide]
Plutella xylostella
  pest or weed control at 500 ppm: ≥ 90%
Culex pipiens pallens [2]
  pest or weed control at 3.5 ppm: ≥ 90%
Culex pipiens pallens [3]
  pest or weed control at 0.1 % strength: ≥ 80%
Spodoptera litura
  pest or weed control at 500 ppm: ≥ 80%
Musca domestica [6]
  pest or weed control at 500 ppm: ≥ 90%
Blattella germanica [7]
  pest or weed control at 0.1 % strength: ≥ 80%

## Cc1c(C(=O)NCC2CCOC2)noc1CCCc1ccc2ccccc2c1 (stereo not shown) [(290), N-(tetrahydrofuran-3-ylmethyl)-4-methyl-5-[3-(2-naphthyl)propyl]isoxazole-3-carboxamide]
Musca domestica [1]
  pest or weed control at 2 % strength: ≥ 80%
Plutella xylostella
  pest or weed control at 500 ppm: ≥ 90%
Culex pipiens pallens [2]
  pest or weed control at 3.5 ppm: ≥ 90%
Culex pipiens pallens [3]
  pest or weed control at 0.1 % strength: ≥ 80%
Spodoptera litura
  pest or weed control at 500 ppm: ≥ 80%
Musca domestica [6]
  pest or weed control at 500 ppm: ≥ 90%
Blattella germanica [7]
  pest or weed control at 0.1 % strength: ≥ 80%
Blattella germanica [5]
  pest or weed control at 2 % strength: ≥ 80%

## O=C(NCC1CCOC1)c1cc(Cc2ccc3c(c2)OCO3)on1 (stereo not shown) [(299), N-(tetrahydrofuran-3-ylmethyl)-5-(1,3-benzodioxolan-5-ylmethyl)isoxazole-3-carboxamide]
Culex pipiens pallens [2]
  pest or weed control at 3.5 ppm: ≥ 90%
Culex pipiens pallens [3]
  pest or weed control at 0.1 % strength: ≥ 80%
Musca domestica [6]
  pest or weed control at 500 ppm: ≥ 90%
